Data published in PubChem BioAssay (NCI).
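Tested at 5 concentrations; 48 h exposure; 96-well plates; endpoints linearly interpolated, else capped at highest concentration. At the GI50, growth is halved. TGI marks complete inhibition of growth.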

Experiments:
Experiment in all cases: growth of human tumour cells (NCI), 48 h
[1] = test system: MCF7 breast
[2] = test system: NCI/ADR-RES ovarian
[3] = test system: PC-3 prostate
[4] = test system: T-47D breast
[5] = test system: DU-145 prostate
[6] = test system: DMS 273 small cell lung
[7] = test system: DMS 114 small cell lung

Molecule Cc1ccc(-c2nc3nc(-c4ccccc4)nc(N4CCCNCC4)c3o2)cc1 has a GI50 [1] of 1.48 µM, a TGI [1] of 3.5 µM and a GI50 [2] of 2.17 µM. For the same molecule, the TGI [2] was 4.71 µM, the GI50 [3] was 1.69 µM and the TGI [3] was 3.17 µM. It also gave a GI50 [4] of 1.73 µM, a TGI [4] of 3.5 µM and a GI50 [5] of 1.82 µM. The TGI [5] was 3.3 µM.

C[N+]1=C(/C=C/c2ccc(O)c3ncccc23)C(C)(C)c2ccccc21 was tested, and the GI50 [1] was 2.71 µM, the TGI [1] was 10.7 µM and the GI50 [2] was 0.634 µM. For the same molecule, the TGI [2] was 6.08 µM, the GI50 [3] was 2.79 µM and the TGI [3] was 22 µM. For the same molecule, the GI50 [4] was 2.94 µM, the TGI [4] was 14.2 µM and the GI50 [5] was 2.98 µM. The TGI [5] was 12.1 µM.

CCOC(=O)/C(=C\c1ccccc1)C(=O)O gave a TGI [6] greater than 100 µM and a TGI [7] greater than 100 µM.

For CCN(CC)CCCC(C)Nc1c2ccc(Cl)cc2nc2ccc(O)cc12 (stereo not given), the GI50 [1] was 1.4 µM, the TGI [1] was 5.48 µM and the GI50 [2] was 11 µM. It also gave a TGI [2] of 26.4 µM, a GI50 [3] of 3.58 µM and a TGI [3] of 18.5 µM. It also gave a GI50 [4] of 3 µM, a TGI [4] of 11.6 µM and a GI50 [5] of 2.26 µM. For the same molecule, the TGI [5] was 8.39 µM.

Work on O=C1Nc2ccccc2C1(c1ccc(O)cc1)c1ccc(O)cc1 yielded a GI50 [1] of 0.378 µM, a TGI [1] of 27.8 µM and a GI50 [2] of 0.982 µM. For the same molecule, the TGI [2] was greater than 100 µM, the GI50 [3] was 2.71 µM and the TGI [3] was 75 µM. The GI50 [4] was 0.0474 µM, the TGI [4] was 0.245 µM and the GI50 [5] was 21 µM. The TGI [5] was 54.3 µM.

Nc1nccc(-c2c(-c3ccc(F)cc3)ncn2C2CCC(O)CC2)n1 (stereo not given) gave a GI50 [1] of 0.677 µM, a TGI [1] greater than 9.14 µM and a GI50 [2] greater than 18 µM. The TGI [2] was greater than 25 µM, the GI50 [3] was 13.3 µM and the TGI [3] was greater than 25 µM. It also gave a GI50 [4] of 3.56 µM, a TGI [4] greater than 19 µM and a GI50 [5] of 11.2 µM. For the same molecule, the TGI [5] was greater than 25 µM.

Work on COc1cc2ncn(-c3cc(OCc4cccs4)c(C(N)=O)s3)c2cc1OC yielded a GI50 [1] of 0.752 µM, a TGI [1] greater than 12.5 µM and a GI50 [2] of 2.22 µM. It also gave a TGI [2] greater than 25 µM, a GI50 [3] of 3.43 µM and a TGI [3] greater than 25 µM. For the same molecule, the GI50 [4] was 6.4 µM, the TGI [4] was greater than 25 µM and the GI50 [5] was 0.935 µM. It also gave a TGI [5] greater than 8.22 µM.

For COc1cc2cc(Oc3ccc(NC(=O)Nc4ccc(Cl)c(C(F)(F)F)c4)cc3)c(C)nc2cc1OCCN1CCOCC1, the GI50 [1] was 1.26 µM, the TGI [1] was 3.33 µM and the GI50 [2] was 2.34 µM. It also gave a TGI [2] of 12.6 µM, a GI50 [3] of 1.36 µM and a TGI [3] of 6 µM. For the same molecule, the GI50 [4] was 1.32 µM, the TGI [4] was 5.2 µM and the GI50 [5] was 2.69 µM. For the same molecule, the TGI [5] was 13.8 µM.

Work on O=C(O)/C=C(\c1nc2ccc([N+](=O)[O-])cc2[nH]1)c1cc(Cl)ccc1O yielded a GI50 [1] of 2.36 µM, a TGI [1] of 16.6 µM and a GI50 [2] of 2.71 µM. For the same molecule, the TGI [2] was greater than 100 µM, the GI50 [3] was 2.25 µM and the TGI [3] was greater than 100 µM. The GI50 [4] was 2.3 µM, the TGI [4] was 9.38 µM and the GI50 [5] was 4.12 µM. It also gave a TGI [5] greater than 100 µM.

O=C(CC1C(=O)NN(c2ccc(Br)cc2)C1=O)c1cc(O)ccc1O (stereo not given) gave a GI50 [1] of 21.2 µM, a TGI [1] greater than 50 µM and a GI50 [2] of 19.6 µM. It also gave a TGI [2] greater than 50 µM, a GI50 [3] of 24.1 µM and a TGI [3] greater than 50 µM. For the same molecule, the GI50 [5] was 21.2 µM and the TGI [5] was greater than 50 µM.

In the case of COc1cc(C(=O)CBr)c(OC)cc1C, the TGI [1] is reported as greater than 100 µM, the TGI [2] is reported as greater than 100 µM and the TGI [3] is reported as greater than 100 µM. It also gave a TGI [4] greater than 100 µM and a TGI [5] greater than 100 µM.
